# Reference: article PMC12056667 (Chemical Science, 2025)
# Assays:
# Tet(X4) [1] = target: T1, Tet(X4) (Escherichia coli, UniProt A0A3T0V9Y5); assay: Absorbance activity assay (tigecycline turnover, A400); assay type: biochemical
# From the text: We then tested the binding of reported type 1 TDase inhibitors to Tet(X4) (Fig. 3f, ESI Fig. S17 ^†).[33,38,39] […] These compounds gave similar apparent IC50^app values, in accord with trends in IC50 measurements performed by Markley et al.[33] […] We also developed a complementary endpoint activity assay where the turnover of tigecycline by Tet(X4) in a 96-well plate was quenched by addition of 1%v/v formic acid and analysed chromatographically. The peak integrals of tigecycline and its hydroxylated degradation product at 254 nm following UPLC analysis were measured to determine turnover (Fig. 5a). As this method separates components by chromatography, it enables IC50 measurements independent of potential interference from UV-active inhibitors (Fig. 5b). […] The apparent synergy of AZT with tetracyclines against whole cells expressing Tet(X4)[40] is therefore interesting and may derive from the proposed ability of AZT to interfere with DNA synthesis in bacteria,[40,53] or other unidentified mechanisms. […] Note, however, that plumbagin and 2-MNQ are naphthoquinones, which are well-characterised redox-active pan-assay interference (PAINS) moieties.[54]
# 233 Absorbance Activity Assays
# 234 A solution containing 100 mM TAPS (pH 8.5), 2 µM FAD, 10 mM MgCl2 and 100 nM Tet(X4) was
# 235 dispensed into a 384 well µClear plate (Greiner Bio-One), 25 µL per well, using a microplate reagent
# 236 dispenser. A 3-fold, 10-point dilution series of the substrates and inhibitors was made in DMSO with
# 237 the highest concentration of 50 mM, unless otherwise stated, and transferred to the enzyme solution in
# 238 technical quadruplicate using a CyBi-Well (CyBio) liquid-handling robot (1 µL per well). On each plate,
# 239 a column of no enzyme negative controls and no inhibitor (DMSO only) positive controls were
# 240 included. The plate was briefly centrifuged (1000 rpm), then incubated (ambient temperature,15 min).
# 241 A solution containing 100 mM TAPS (pH 8.5), 50 µM tigecycline and 500 µM NADPH was then
# 242 dispensed, with 25 µL per well. The plate was briefly centrifuged (1000 rpm), then transferred to a
# 243 CLARIOstar Plus Microplate reader. The absorbance was monitored at wavelength […] over the
# 244 course of 2 hours (23 flashes / cycle, 180 s cycle time, 41 data points, 25 ° C). The initial rate was
# 245 calculated by measuring the rate of change of A400 during the initial linear regime. Initial rates were
# 246 normalised between positive and negative controls. The normalised % response was plotted as a
# 247 function of log10([Inhibitor]) in molar units, and the IC50 was determined as above. […]
# Tet(X4) [2] = target: T1, Tet(X4); assay: biochemical; conditions: 20 μM tigecycline, 50 nM Tet(X4), 100 μM NADPH, 5 mM MgCl2, 1 μM FAD, 100 mM TAPS pH 8.5; read-out: IC50, UPLC assay
# Procedure, shortened: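 Endpoint turnover assay: 100 nM Tet(X4) with […] and 10 mM MgCl2 in 100 mM TAPS pH 8.5, preincubated with inhibitor 15 min at 30 °C, then 40 μM tigecycline plus 200 μM NADPH added […] for 20 min at 30 °C.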
# Tet(X4) [3] = target: T1, Tet(X4); assay: FP competitive displacement of probe 6; assay type: binding; conditions: for IC50: IC50app, 25 nM 6, 40 nM Tet(X4), 5 mM MgCl2, 1 μM FAD, 100 mM Tris pH 7.0, 0.01% Triton X-100
# Procedure, shortened: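 FP displacement of probe 6 (added as 50 nM solution) from Tet(X4) (2× mix: 80 nM enzyme, 2 μM FAD, 10 mM MgCl2), 30 min at ambient temperature. Dose-response used 3-fold, 10-point DMSO series (top 5 or 0.5 mM stock). IC50^app came from a Hill fit of control-normalised response. Library screening used 10 μM compound, 0.1% DMSO, […].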
Compound,IC50 (Tet(X4) [1]),IC50 (Tet(X4) [2]),IC50 (Tet(X4) [3]; FP assay),displacement of probe 6 / competitive binding (in words) (Tet(X4) [3]; up to a maximum concentration of 100 μM),IC50 (Tet(X4) [3]; Tet(X4) (Polarization))
Cc1c2c(c(O)c3c(O)cccc13)C(=O)[C@]1(O)C(=O)C(C(N)=O)=C(O)[C@@H](N(C)C)[C@@H]1C2 [Anhydrotetracycline],7.6 ± 2 µM,2.6 ± 0.3 µM,0.0268 ± 0.0053 µM,clear dose-dependent displacement,
[H]/N=C(/NCCCCC)N/N=C/c1c[nH]c2ccc(OC)cc12 [Tegaserod],,25.9 ± 2.4 µM,,,43.2 ± 2.2 µM
CN1CCN(CCCN2c3ccccc3Sc3ccc(C(F)(F)F)cc32)CC1 [Trifluoperazine],,83.8 ± 21.4 µM,,,55.6 ± 14.2 µM
O=C(c1ccc(OCCN2CCCCC2)cc1)c1c(-c2ccc(O)cc2)sc2cc(O)ccc12 [Raloxifene],,8.3 ± 2.1 µM,,,19.8 ± 5.4 µM
